Experiments:
[1] = system: HT29 subcutaneous xenograft tumors; assay: In vivo pharmacodynamic study of combination therapy, HT29 subcutaneous xenograft tumor model of mice (Biological Example 14); design: species or system BALB/c nude mice
Source text: BALB/c nude mice were each inoculated subcutaneously with 5×10^6 HT29 cells on the left dorsal side. After the tumors grew to 100-150 mm^3, the mice were randomly divided into the following groups for intragastric administration once daily for 14 consecutive days: group 1: vehicle control group; group 2: AMG650 (50 mpk, PO, QD); group 3: compound 714 (50 mpk, PO, QD); group 4: AMG650 (50 mpk, PO, QD)+Onvasertib (20 mpk, PO, QD); group 5: compound 714 (50 mpk, PO, QD)+Onvasertib (20 mpk, PO, QD); and group 6: Onvasertib (20 mpk, PO, QD). The administration to all the groups was stopped on day 15, and the tumor growth continued to be observed until day 21. The tumor volume was measured twice weekly and at the end of administration. […]

[2] = system: Histone H3 Ser10 site in HT29 cells; assay: Phosphorylation assay of histone H3 Ser10 site in HT29 cells, immunofluorescence (Biological Example 4); assay type: cell-based; details: Homo sapiens, HT-29, 6 h, FITC/DAPI
Protocol: HT29 cells were seeded in a 96-well plate (Fisher 160376) at 8000 cells/well. The next day, the serially diluted compounds were added. Six hours after the addition of the compounds, the cells were washed once with 1×PBS, immobilized with 4% PFA for 15 min, further washed three times with 1×PBS, and permeabilized with 0.02% Triton-X100 for 10 min. Then, blocking was performed for 15-30 min using a blocking buffer. After a primary antibody (Phospho-Histone H3 (Ser10)) at a 1:3000 dilution was added, the well plate was left to stand at 4° C. overnight. The next day, the cells were washed three times with 1×PBS, and then a secondary antibody (Fluorescein (FITC)-conjugated Affinipure Goat Anti-Rabbit IgG (H+L)) at a 1:1000 dilution was added. The cells were incubated in the dark for 1-2 h and then washed three times with 1×PBS. Subsequently, the cell nuclei were stained using DAPI. The ratio of phosphorylation (FITC/DAPI) at H3 Ser10 site in HT29 cells was quantified. The effects of the compounds on Phospho-Histone H3 were evaluated, and EC50 values of the compounds were calculated.

[3] = system: HT29 subcutaneous xenograft tumors; assay: In vivo pharmacodynamic study, HT29 subcutaneous xenograft tumor model of mice (Biological Example 3); design: species or system BALB/c nude mice; details: for Tumor volume on day 1 of administration / TGI / Tumor volume on day 28 of administration: 80 mg/kg intragastric once daily; for Tumor volume on day 1 of administration: day 1 (baseline); for TGI / Tumor volume on day 28 of administration: day 28; for inhibitory effects on the HT29 subcutaneous xenograft tumor in mice compared with AMG650: 80 mg/kg, in words
Protocol: BALB/c nude mice were each inoculated subcutaneously with 5×10^6 HT29 cells on the left dorsal side. After the tumors grew to 100-150 mm^3, the mice were randomly divided into the following groups for intragastric administration once daily: group 1: vehicle control group; group 2: compound 661 (80 mg/kg); group 3: compound 669 (80 mg/kg); group 4: compound 677 (80 mg/kg); group 5: compound 714 (80 mg/kg); group 6: compound 727 (80 mg/kg); group 7: compound 740 (80 mg/kg); and group 8: AMG65 (80 mg/kg). The tumor volume was measured twice weekly and at the end of administration. […].

[4] = PO QD 14 days, AMG650/714 50 mpk, Onvasertib 20 mpk, day 15
[5] = PO QD 14 days, AMG650/714 50 mpk, Onvasertib 20 mpk, day 21, after stop of administration

Compound	Tumor volume on day 1 of administration ([1]; PO QD 14 days, AMG650/714 50 mpk, Onvasertib 20 mpk, day 1 (baseline))	TGI on day 15 [1, 4]	Tumor volume on day 15 of administration [1, 4]	TGI on day 21 [1, 5]	Tumor volume on day 21 of administration [1, 5]	tumor inhibitory effect, combined use with the PLK1 inhibitor Onvasertib compared with monotherapy ([1]; combined with Onvasertib, in words)	therapeutic efficacy of monotherapy in HT29-bearing mice ([1]; monotherapy, in words)	EC50 [2]	Tumor volume on day 1 of administration [3]	TGI [3]	Tumor volume on day 28 of administration [3]	inhibitory effects on the HT29 subcutaneous xenograft tumor in mice compared with AMG650 [3]
COc1ccc(NC(=O)c2ccc(NS(=O)(=O)CCOC(=O)[C@@H](N)C(C)C)cc2N2CCC3(CC2)CC3)nc1N1CCC(F)(F)CC1 [Compound 714]	134 mm^3	121%	17 mm^3	110%	49 mm^3	stronger tumor inhibitory effect	able to inhibit tumor growth	39.2 nM	121 mm^3	80%	424 mm^3	stronger inhibitory effects
COc1ccc(C(=O)Nc2ccc(NS(=O)(=O)CCOC(=O)[C@@H](N)C(C)C)cc2N2CCC3(CC2)CC3)nc1N1CCC(F)(F)CC1 [Compound 727]									121 mm^3	73%	519 mm^3	stronger inhibitory effects
COc1ccc(NC(=O)c2ccc(S(=O)(=O)NCCOC(=O)[C@@H](N)C(C)C)cc2N2CCC3(CC2)CC3)nc1N1CCC(F)(F)CC1 [Compound 740]									121 mm^3	67%	605 mm^3	stronger inhibitory effects

Source: US20260191849A1, “PHARMACEUTICAL COMPOSITION FOR TREATMENT OF CANCER” (WIGEN BIOMEDICINE TECHNOLOGY (SHANGHAI) CO., LTD., priority 2022, published 2026)
